# Values quoted from earlier work, collected in patent US20240018135A1, “COMPOUND HAVING INHIBITORY ACTIVITY AGAINST O-GLUSACASE AND USE THEREOF” (MEDIFRON DBT INC., priority 2020, published 2024).
# Molecular target: bacterial homolog of O-GlcNAcase from Clostridium perfringens (Clostridium perfringens (strain 13 / Type A), UniProt Q8XL08)
# Details: cited from earlier work
# Chain of bacterial homolog of O-GlcNAcase from Clostridium perfringens (Q8XL08 31-1001 limits assumed): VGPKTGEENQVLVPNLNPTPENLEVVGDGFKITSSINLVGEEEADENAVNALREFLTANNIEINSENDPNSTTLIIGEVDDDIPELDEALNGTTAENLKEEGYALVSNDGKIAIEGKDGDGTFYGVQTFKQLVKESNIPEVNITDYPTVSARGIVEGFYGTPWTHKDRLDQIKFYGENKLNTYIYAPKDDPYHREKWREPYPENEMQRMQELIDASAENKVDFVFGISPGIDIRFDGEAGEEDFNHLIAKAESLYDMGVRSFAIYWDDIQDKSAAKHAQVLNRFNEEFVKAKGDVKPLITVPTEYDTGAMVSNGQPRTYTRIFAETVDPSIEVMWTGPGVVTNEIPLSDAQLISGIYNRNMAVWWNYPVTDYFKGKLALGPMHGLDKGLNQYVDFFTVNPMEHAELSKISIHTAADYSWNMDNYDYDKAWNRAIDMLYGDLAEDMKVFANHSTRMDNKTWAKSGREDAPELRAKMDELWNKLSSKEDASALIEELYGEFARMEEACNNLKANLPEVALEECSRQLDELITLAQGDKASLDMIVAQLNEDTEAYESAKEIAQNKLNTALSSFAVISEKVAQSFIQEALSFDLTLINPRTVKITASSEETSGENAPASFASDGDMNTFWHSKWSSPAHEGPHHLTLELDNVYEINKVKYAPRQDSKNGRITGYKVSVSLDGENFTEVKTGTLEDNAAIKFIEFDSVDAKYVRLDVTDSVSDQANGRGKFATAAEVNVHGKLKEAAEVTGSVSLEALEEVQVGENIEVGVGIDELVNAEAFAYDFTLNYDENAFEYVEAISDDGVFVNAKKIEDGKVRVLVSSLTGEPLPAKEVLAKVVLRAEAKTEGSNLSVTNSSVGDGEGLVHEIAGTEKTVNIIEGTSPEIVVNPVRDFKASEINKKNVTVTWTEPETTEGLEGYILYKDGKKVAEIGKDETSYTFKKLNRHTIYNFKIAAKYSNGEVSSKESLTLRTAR
compound,measurement,value
CC(C)C(=O)N[C@H]1c2nc(CCc3ccccc3)cn2[C@H](CO)[C@@H](O)[C@@H]1O [GlcNAcstatin],efficacy,picomolar
